Data on 22 compounds can be found in US6613879B1, “FAP-activated anti-tumour compounds” (Boehringer Ingelheim Pharma KG, priority 1999, dated 2003).

Residues, ends and D or L forms follow the SMILES beside them. *: point of attachment. NH(4-MeO-2-naphthyl) = COc1cc(N*)cc2ccccc12; AFC = O=c1cc(C(F)(F)F)c2ccc(N*)cc2o1; Cbz = O=C(OCc1ccccc1)* A value given as a limit tells only on which side of the number the result lay.

The target in test [1] is T1, FAPα (Homo sapiens, UniProt Q12884).
T1 sequence (Q12884 1-760): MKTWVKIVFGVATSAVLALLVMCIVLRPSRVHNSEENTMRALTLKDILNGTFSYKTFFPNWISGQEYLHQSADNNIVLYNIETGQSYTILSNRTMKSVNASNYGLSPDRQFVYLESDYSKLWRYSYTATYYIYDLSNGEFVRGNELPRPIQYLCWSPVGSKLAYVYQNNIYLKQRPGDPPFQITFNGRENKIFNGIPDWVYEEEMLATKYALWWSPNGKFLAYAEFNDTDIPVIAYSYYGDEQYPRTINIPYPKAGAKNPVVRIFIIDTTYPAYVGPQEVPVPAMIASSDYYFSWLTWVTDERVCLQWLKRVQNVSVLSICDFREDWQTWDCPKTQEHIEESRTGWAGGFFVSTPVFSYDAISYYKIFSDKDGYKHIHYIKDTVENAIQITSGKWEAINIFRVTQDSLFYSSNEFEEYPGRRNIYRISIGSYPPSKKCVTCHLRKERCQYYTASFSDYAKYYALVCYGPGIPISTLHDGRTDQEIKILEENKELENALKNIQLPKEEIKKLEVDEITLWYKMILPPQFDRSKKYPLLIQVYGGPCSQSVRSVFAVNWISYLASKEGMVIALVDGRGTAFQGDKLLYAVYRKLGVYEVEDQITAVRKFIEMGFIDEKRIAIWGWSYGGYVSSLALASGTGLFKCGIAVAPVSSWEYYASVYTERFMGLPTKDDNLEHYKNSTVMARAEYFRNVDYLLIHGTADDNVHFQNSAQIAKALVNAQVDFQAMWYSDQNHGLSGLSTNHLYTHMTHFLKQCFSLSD
Briefly: Cleavage specificity of MNA-peptide conjugates, FAPα. The format is biochemical. Particulars: release of free MNA. As for the experimental part: (§1) Release of free MNA from the peptides was then measured in a Cytofluor fluorimeter (Per-Septive Biosystems, Inc.) using the 355 nm excitation/405 nm emission filter set.
(§2) Among the-known prolyl-specific serine oligopeptidase family members, the most closely related enzyme to FAPα is DPP-IV. Since active DPP-IV is found in plasma and on many different cell types, optimization of the relative (optional) selectivity of prodrug peptidics for FAPα compared to DPP-IV is necessary to reduce undesirable conversion of the prodrug at sites other than the tumor (e.g., in the plasma). To identify peptides specific for FAPα, cleavage of MNA-coupled peptides by FAPα was compared to the ability of DPP-IV to cleave the same peptide conjugates.

Test [2] addresses DPP-IV (Homo sapiens, UniProt P27487). As to the kind of experiment: Cleavage specificity of MNA-peptide conjugates, DPP-IV. The format is biochemical. Particulars: release of free MNA. The protocol: as §1, §2
In test [3] the target is T2, FAPα enzyme derived from membrane extracts of the 293-I/2 transfected cells (Homo sapiens, UniProt Q12884).
T2 construct: made in house; host or cells: human embryonic kidney 293 cells, clone 293-I/2, membrane extract
T2 sequence (Q12884 1-760): T1 sequence (Q12884 1-760)
As to the kind of experiment: FAPα-catalyzed cleavage of 4-methoxy-β-napthylamide (MNA)-peptide conjugates, enzyme kinetics. Particulars: release of free MNA, fluorimeter 355 nm/405 nm. The format is biochemical. As for the experimental part: as §1

For test [4], the target named is T3, soluble recombinant FAPα (FAPmCD8 fusion protein) (UniProt P01731+Q12884).
T3 construct: the extracellular domain of FAPα (amino acids 27 to 760), generating a fusion protein construct, FAPmCD8; extracellular domain of murine CD8α (Genbank M12825), N-terminal 189 amino acids (N); made in house; host or cells: High Five insect cells, recombinant baculovirus (pVL1393; amplified in Sf9)
T3 sequence (P01731+Q12884 fused): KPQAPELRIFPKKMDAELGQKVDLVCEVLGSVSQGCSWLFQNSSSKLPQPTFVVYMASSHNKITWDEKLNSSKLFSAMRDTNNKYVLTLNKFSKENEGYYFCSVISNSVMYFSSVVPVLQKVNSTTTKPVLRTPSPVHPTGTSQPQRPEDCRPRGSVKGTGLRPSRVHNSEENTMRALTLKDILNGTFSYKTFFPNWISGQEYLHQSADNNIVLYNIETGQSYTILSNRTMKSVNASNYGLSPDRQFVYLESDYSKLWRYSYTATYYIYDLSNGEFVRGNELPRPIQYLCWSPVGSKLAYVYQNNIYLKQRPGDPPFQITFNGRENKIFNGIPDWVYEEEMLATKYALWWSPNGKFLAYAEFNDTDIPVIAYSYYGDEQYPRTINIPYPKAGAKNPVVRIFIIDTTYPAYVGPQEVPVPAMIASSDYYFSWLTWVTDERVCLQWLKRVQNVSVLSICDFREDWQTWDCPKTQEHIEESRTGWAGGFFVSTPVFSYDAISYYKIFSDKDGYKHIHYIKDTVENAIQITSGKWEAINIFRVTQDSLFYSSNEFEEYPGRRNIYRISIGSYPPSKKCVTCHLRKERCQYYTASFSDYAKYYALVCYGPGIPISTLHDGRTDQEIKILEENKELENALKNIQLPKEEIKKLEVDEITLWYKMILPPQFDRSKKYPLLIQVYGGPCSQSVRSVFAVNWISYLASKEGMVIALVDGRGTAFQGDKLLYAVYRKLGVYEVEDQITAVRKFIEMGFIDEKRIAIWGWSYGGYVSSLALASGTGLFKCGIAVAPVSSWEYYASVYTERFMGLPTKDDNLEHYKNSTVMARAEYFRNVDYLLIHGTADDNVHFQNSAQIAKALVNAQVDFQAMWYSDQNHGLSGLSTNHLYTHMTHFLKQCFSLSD
Briefly: Cleavage of doxorubicin-peptide conjugates by soluble recombinant FAPα (HPLC release of free doxorubicin). It is filed as biochemical, human. The following applies: for Cleavage by FAP: after 20 h. The protocol:
A soluble recombinant form of FAPα protein was prepared as follows. […] The cDNAs were verified by sequencing and inserted into the pVL1393 vector. […] The culture supernatant of High Five cells infected with recombinant FAPmCD8 baculovirus for four days was collected and cleared by ultracentrifugation. FAPmCD8 fusion protein was purified from such supernatants using an anti-FAPα monoclonal antibody immobilized on activated agarose beads (Pierce Chemical, Indianapolis, Ind., USA). […] The samples were immediately neutralized with a saturated Tris solution (Sigma Chemicals, St. Louis, Mo.) and protein-containing fractions were pooled.
Doxorubicin-peptide conjugate stock solutions (5 mM) were diluted with Hepes-buffered saline pH 7.4 to a final concentration of 50 to 100 μM. Twenty μl of the resulting solution was mixed with 50 μl of purified FAPmCD8 fusion protein (approximately 20 ng) described above and 30 μl Hepes-buffered saline, pH 7.4. The mixture was allowed to incubate at 37° C. for 1 day and release of free doxorubicin was measured in the HPLC assay described. Areas under each peak were quantified using the software package above and the initial value was set to 100%. The rate of release of free doxorubicin was measured by the appearance of a peak with the same retention time as free doxorubicin under these HPLC conditions. The areas under each peak were used to calculate the relative amounts of free doxorubicin to doxorubicin-peptide conjugate.

Test [5] deals with T4, cell-bound FAPα (FAP-expressing cell line HT1080 clone 33) (Homo sapiens, UniProt Q12884).
T4 construct: expressed in transfected cells; host or cells: HT1080 fibrosarcoma cells, clone 33
T4 sequence (Q12884 1-760): T1 sequence (Q12884 1-760)
As to the kind of experiment: Release of free doxorubicin by cell-bound FAPα, HT1080 clone 33 cells. It is filed as cell-based. Particulars: 1 μM conjugate, serum-free medium, 19 hours at 37° C. As for the experimental part:
(§3) Mammalian cell lines expressing recombinant FAPα were prepared. HT1080 fibrosarcoma cells, widely known and available from the DSMZ (German Collection of Microorganisms and Cell Cultures, Braunschweig, Germany) under the accession number DSMZ ACC 315, were maintained in a DMEM/F12 mix 50:50 containing 10% fetal bovine serum in an atmosphere of 95% air and 5% CO2. HT1080 cells were transfected with FAP.38 vector (WO 97/34927, Scanlan et al., loc. cit.) using the Lipofectin method according to the manufacturer's instructions (Gibco/BRL). Transfectants were selected for resistance to antibiotics (200 μg/ml Geneticin) and thereafter maintained in medium containing Geneticin. Individual colonies of resistant cells were picked, grown to confluence in 10 cm tissue culture petri dishes and tested for FAPα expression in an immunofluorescence assay using the FAPα-specific monoclonal antibody F19, as described (Garin-Chesa et al. (1990) Proc. Natl. Acad. Sci. USA 87(18), 7235-7239).
(§4) Samples were separated by reversed-phase high performance liquid chromatographic (HPLC) assay that was established to measure cleavage of doxorubicin-peptide conjugates. […] Free doxorubicin and doxorubicin-peptide conjugates were detected by fluorescence (excitation, 475 nm; emission, 585 nm) using a Waters 474 fluorescence detector. […]

Test [6] relates to parental HT1080 cell line. The following applies: 1 μM conjugate, serum-free medium, 19 hours at 37° C. As for the experimental part: as §3, §4
Test [7] addresses T5, FAPα dimers (Homo sapiens, UniProt Q12884).
T5 sequence (Q12884 1-760): T1 sequence (Q12884 1-760)
The following applies: membrane overlay assay; cited from earlier work.

Chain of DPP-IV (P27487 whole entry, species assumed): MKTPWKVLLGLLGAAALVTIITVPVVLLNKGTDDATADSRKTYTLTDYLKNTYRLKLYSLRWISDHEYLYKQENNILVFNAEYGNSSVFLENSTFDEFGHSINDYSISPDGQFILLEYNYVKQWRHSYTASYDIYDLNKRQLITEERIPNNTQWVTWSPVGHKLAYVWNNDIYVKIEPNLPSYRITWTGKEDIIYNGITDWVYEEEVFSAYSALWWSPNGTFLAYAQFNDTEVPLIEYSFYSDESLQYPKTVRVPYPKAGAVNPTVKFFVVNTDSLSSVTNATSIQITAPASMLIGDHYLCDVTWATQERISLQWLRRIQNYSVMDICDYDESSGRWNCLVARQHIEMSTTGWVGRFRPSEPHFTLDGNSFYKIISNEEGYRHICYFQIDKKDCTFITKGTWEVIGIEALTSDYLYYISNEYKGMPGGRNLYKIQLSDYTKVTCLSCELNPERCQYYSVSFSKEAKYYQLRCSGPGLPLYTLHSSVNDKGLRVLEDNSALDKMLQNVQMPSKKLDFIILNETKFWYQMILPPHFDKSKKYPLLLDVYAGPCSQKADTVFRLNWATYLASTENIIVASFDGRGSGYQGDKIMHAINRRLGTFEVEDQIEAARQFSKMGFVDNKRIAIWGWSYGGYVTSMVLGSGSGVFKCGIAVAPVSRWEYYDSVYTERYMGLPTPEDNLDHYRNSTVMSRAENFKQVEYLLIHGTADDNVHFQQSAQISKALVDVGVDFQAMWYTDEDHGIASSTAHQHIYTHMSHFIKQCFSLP

Turning to `COc1cc(NC(=O)C2CCCN2C(=O)CNC(=O)OCc2ccccc2)cc2ccccc12` (stereo not drawn) [Z-Gly-Pro-MNA], in test [1], the “Cleavage specificity FAP” value is “+”. In addition, the “Cleavage specificity DPP IV” value in test [2] is reported as “−”. With `COc1cc(NC(=O)[C@@H]2CCCN2C(=O)[C@@H](N)CCC(N)=O)cc2ccccc12` [Gln-Pro-MNA], in test [3], the Kcat amounted to 40.5 s⁻¹ and the Michaelis-Menten constant (Km) worked out at 273 µM. Consider `CC[C@H](C)[C@H](N)C(=O)N1CCC[C@H]1C(=O)Nc1cc(OC)c2ccccc2c1` [Ile-Pro-MNA], for which, in test [3], the Kcat stood at 12.6 s⁻¹ and the Km turned out to be 43 µM. Consider `COc1cc(NC(=O)[C@@H]2CCCN2C(=O)[C@@H](N)CCSC)cc2ccccc12` [Met-Pro-MNA], for which, in test [3], the Kcat turned out to be 27.9 s⁻¹ and the Km worked out at 127 µM.

Take `COc1cccc2c1C(=O)c1c(O)c3c(c(O)c1C2=O)C[C@@](O)(C(=O)CO)C[C@@H]3O[C@H]1C[C@H](NC(=O)[C@@H]2CCCN2C(=O)CNC(=O)OCc2ccccc2)[C@H](O)[C@H](C)O1` [ZGP-Dox, N-Cbz-Gly-Pro-Doxorubicin]: the “conversion of conjugate to free doxorubicin after incubation with purified FAPmCD8 fusion protein” value in test [4] (37° C., 1 day, approximately 20 ng FAPmCD8, Hepes-buffered saline pH 7.4, HPLC (FIG. 1)) is on record as “could be converted to free doxorubicin”. The “Cleavage by FAP” value in test [4] is on record as greater than 95%. Moreover, the “conversion of conjugate to free doxorubicin by HT1080 clone 33” value in test [5] was found to be 81%. The “conversion of conjugate to free doxorubicin by parental HT1080 cell line” value in test [6] is 9%. As to `NCC(=O)N1CCC[C@H]1C(=O)Nc1ccc2c(C(F)(F)F)cc(=O)oc2c1` [Gly-Pro-7-amino-4-trifluoromethyl coumarin] (H-Gly-Pro-{AFC}), the “cleavage by FAPα dimers” value in test [7] is on record as “able to cleave”. Take `COc1cc(NC(=O)C2CCCN2C(=O)C(N)CCCCN)cc2ccccc12` (stereo not drawn) [Lys-Pro-MNA]: in test [3], the Kcat amounted to 57.1 s⁻¹ and the Km is 530 µM. Consider `COc1cc(NC(=O)[C@@H]2CCCN2C(=O)[C@@H](N)CCCCO)cc2ccccc12` [Hyn-Pro-MNA], for which, in test [3], the Kcat was found to be 27.4 s⁻¹ and the Michaelis-Menten constant (Km) came to 69 µM. Regarding `COc1cccc2c1C(=O)c1c(O)c3c(c(O)c1C2=O)CC(O)(C(=O)CO)CC3OC1CC(NC(=O)C2CCCN2C(=O)C(N)C2CCCCC2)C(O)C(C)O1` (stereo not drawn) [H-Chg-, H-Chg-Pro-Dox], the “Cleavage by FAP” value in test [4] is greater than 95%. In the case of `COc1cc(NC(=O)[C@@H]2CCCN2C(=O)[C@@H](N)C(C)C)cc2ccccc12` [Val-Pro-MNA], in test [3], the Kcat amounted to 27.7 s⁻¹ and the Michaelis constant (Km) came out at 95 µM. Turning to `COc1cc(NC(=O)[C@@H]2CCCN2C(=O)[C@@H]2CCCN2)cc2ccccc12` [Pro-Pro-MNA, Pro-Pro-4-methoxy-β-naphthylamide], in test [3], the Kcat is 49.5 s⁻¹ and the Michaelis-Menten constant (Km) was 154 µM. For the compound `COc1cc(NC(=O)[C@@H]2CCCN2C(=O)[C@@H](N)CC[S+](C)[O-])cc2ccccc12` (stereo partly drawn) [Met(O)-Pro-MNA], in test [3], the Kcat worked out at 26.9 s⁻¹ and the Michaelis-Menten constant (Km) was determined as 378 µM. Consider `NCCCC[C@H](N)C(=O)N1CCC[C@H]1C(=O)Nc1ccc2c(C(F)(F)F)cc(=O)oc2c1` [Lys-Pro-7-amino-4-trifluoromethyl coumarin] (H-Lys-Pro-{AFC}), for which the “cleavage by FAPα dimers” value in test [7] is “able to cleave”.

For `COc1cccc2c1C(=O)c1c(O)c3c(c(O)c1C2=O)CC(O)(C(=O)CO)CC3OC1CC(NC(=O)C2CCCN2C(=O)CNC(=O)C(C)NC(=O)C2CCCN2C(=O)OCC2c3ccccc3-c3ccccc32)C(O)C(C)O1` (stereo not drawn) [Fmoc-Pro-Ala-Gly-, Fmoc-Pro-Ala-Gly-Pro-Dox], in test [4], the “Cleavage by FAP” value was greater than 95%. In the case of `COc1cc(NC(=O)C2CCCN2C(=O)C(C)N)cc2ccccc12` (stereo not drawn) [Ala-Pro-MNA], in test [3], the Kcat is 35.7 s⁻¹ and the Km came to 267 µM. Besides, the “Cleavage specificity FAP” value in test [1] is reported as “+”. In addition, in test [2], the “Cleavage specificity DPP IV” value is given as “+”. `COc1cc(NC(=O)[C@@H]2CCCN2C(=O)[C@@H](N)CCCNC(=N)N)cc2ccccc12` [Arg-Pro-MNA]: in test [3], the Kcat worked out at 50.6 s⁻¹ and the Michaelis constant (Km) was found to be 278 µM. The matching figures for `COc1cc(NC(=O)[C@@H]2CCCN2C(=O)[C@@H]2C[C@@H](O)CN2)cc2ccccc12` [trans-Hyp-Pro-MNA]: 37.9 s⁻¹ and 254 µM. Turning to `COc1cc(NC(=O)[C@@H]2CCCN2C(=O)[C@@H](N)CO)cc2ccccc12` [Ser-Pro-MNA], in test [3], the Kcat came out at 28.3 s⁻¹ and the Michaelis constant (Km) was determined as 872 µM.

`COc1cccc2c1C(=O)c1c(O)c3c(c(O)c1C2=O)CC(O)(C(=O)CO)CC3OC1CC(NC(=O)C2CCCN2C(=O)CNC(=O)C(C)NC(=O)C2CCCN2)C(O)C(C)O1` (stereo not drawn) [H-Pro-Ala-Gly-, H-Pro-Ala-Gly-Pro-Dox]: the “Cleavage by FAP” value in test [4] is listed as “ca. 11%”. In the case of `COc1cc(NC(=O)C2CCCN2C(=O)CNC(=O)C(C)NC(=O)C2CCCN2C(=O)OCc2ccccc2)cc2ccccc12` (stereo not drawn) [Z-Pro-Ala-Gly-Pro-MNA] (Cbz-PAGP-{NH(4-MeO-2-naphthyl)}; configuration not given here), the “Cleavage specificity FAP” value in test [1] is recorded as “+”. In addition, the “Cleavage specificity DPP IV” value in test [2] was “−”.

For `C[C@H](N)C(=O)N1CCC[C@H]1C(=O)Nc1ccc2c(C(F)(F)F)cc(=O)oc2c1` [Ala-Pro-7-amino-4-trifluoromethyl coumarin] (H-Ala-Pro-{AFC}), in test [7], the “cleavage by FAPα dimers” value is given as “able to cleave”.

As to `COc1cc(NC(=O)[C@@H]2CCCN2C(=O)[C@@H](N)C2CCCCC2)cc2ccccc12` [Chg-Pro-MNA], in test [3], the Kcat is 53.7 s⁻¹ and the Michaelis constant (Km) was 75 µM.

Usually Km stands for the concentration of substrate that gives half-maximal velocity.
